{"source": "patent US9982265B2", "about": "“Inhibition of Bruton's tyrosine kinase (Btk) in the lung to treat severe lung inflammation and lung injury” (BOARD OF REGENTS, THE UNIVERSITY OF TEXAS SYSTEM, priority 2014, dated 2018)", "key": {"Btk": {"tested_on": "Btk", "experiment": "Expression of Btk / pBtk in alveolar neutrophils of treated ALI mice, laser confocal microscopy", "format": "in vivo", "details": "LPS/IC ALI; 2 h after administration of ICs; FIG. 4B", "method": "Laser Confocal Microscopy: Purified alveolar neutrophils mounted on cytospins were incubated with the following primary antibodies: anti-mouse Btk, anti-mouse MyD88, anti-mouse MMP-9 (Santa Cruz Biotechnology), and anti-mouse pBtk (Invitrogen, Grand Island, N.Y.). Species specific antibodies conjugated with fluorescent dyes were subsequently applied to slides. Lung tissue sections, processed as routinely done in our laboratory (26, 28), were incubated with anti-mouse FcγRIII antibody (R&D Systems, Minneapolis, Minn.), or anti-mouse MMP-9 antibody (Santa Cruz Biotechnology), or with anti-neutrophil (Ly6G1A8) antibody (Bio X Cell, West Lebanon, N.H.) followed by fluorescence dye-conjugated secondary antibodies. Hoechst 33342 (Calbiochem, San Diego, Calif.) was employed to stain nuclei. Laser confocal microscopy was performed using PerkinElmer Ultra VIEW LCI confocal imaging system with Nikon TE2000-S fluorescence microscope and PlanApox60 immersion oil objective (numerical aperture [NA] 1.4) at room temperature. Ultra VIEW Imaging Suite software (version 5.5.0.4) was used for image processing.\nLaser confocal microscopy was employed to confirm the effectiveness of Btk blocking in alveolar neutrophils. […] The effectiveness of Btk silencing in alveolar neutrophils was 92%. […] These experiments were performed at 2 h after administration of ICs."}, "alveolar neutrophils": {"tested_on": "alveolar neutrophils", "experiment": "Uptake of alveolar neutrophils by mouse spleen macrophages (co-culture 1 h)", "format": "cell-based", "details": "neutrophils from treated LPS/IC ALI mice versus ALI; FIG. 5B", "method": "Neutrophil Apoptosis/Uptake: Purified alveolar neutrophils were evaluated for the presence of cleaved caspase 3 as done routinely in our laboratory (13). Cells mounted on cytospins were incubated with anti-mouse cleaved caspase 3 antibody (Cell Signaling Technology, Danvers, Mass.), followed by dye-conjugated secondary antibody. Fluorescence intensity of cleaved caspase 3 was analyzed as described above. In addition, alveolar neutrophils were co-cultured with mouse spleen macrophages for 1 h (43, 44), and percentage of phagocytosed neutrophils was calculated. In separate sets of experiments bone marrow neutrophils (BMPMNs) were purified according to the previously published protocol (54) and cultivated for 24 h to induce spontaneous apoptosis. Some cells were cultured in the presence of LPS and anti-KC:KC immune complexes. In other experiments, BMPMNs were treated with siRNA specific for Btk (Santa Cruz Biotechnology) conjugated to F(ab′)2 fragments of the Ly6G1A8 antibody. Similarly conjugated control siRNA (Santa Cruz Biotechnology) or F(ab′)2 fragments of the Ly6G1A8 alone served as controls.\nIn other experiments, purified alveolar neutrophils were co-cultured with mouse spleen macrophages for 1 h, and the percentage of phagocytosed neutrophils was assessed by counting numbers of neutrophils present inside macrophages. […]"}, "[1]": {"tested_on": "mice with LPS/IC induced ALI", "experiment": "Two hit model of LPS/IC induced acute lung injury, Lung Injury Score from pulmonary histopathology", "format": "in vivo", "details": "Table 5; intranasal treatment after LPS, before ICs; samples 14 h after IC; score 0 to 2; means ± SD, 4-5 animals per group", "method": "BALB/c mice (Taconic Germantown, N.Y.) were first injected intraperitoneally (i.p.) with either LPS or saline and 8 h later received anti-KC:KC immune complexes or saline (control) by intranasal (i.n.) route. Anti-KC:KC immune complexes were prepared according to the protocol routinely used in our laboratory (28). Some mice received Btk specific siRNA intranasally. In other experiments the animals were treated i.n. with siRNA specific for Btk (see SEQ ID NOs:18-25) or MMP-9 (Invitrogen), both conjugated (T3™-MAX Conjugation Kit (Bioo Scientific Corporation, Austin, Tex.) to F(ab′)2 fragments of anti-mouse neutrophil antibody Ly-6G1A8). F(ab′)2 fragments alone or conjugated to control siRNA (SEQ ID NO's 26 and 27) (Invitrogen) served as controls of the treatment. Two or fourteen hours after i.n. administration of either immune complexes or saline, the animals were euthanized and samples collected for further evaluation. To study role of neutrophil FcγRIII receptors neutrophils were first depleted by i.p. injection of vinblastine (31) followed by adoptive transfer of cells deficient in FcγRIII receptors prepared as described below. […] Lung dysfunction was assessed by analysis of pulmonary histopathology.\nPulmonary Histopathology: Lungs were fixed in ExCellPlus (AMTS, Lodi, Calif.), embedded in paraffin, and sectioned at 5 μm. […] The images of stained sections were evaluated for the presence of alveolar exudate, infiltration of inflammatory cells, and interstitial thickening. Lung Injury Score (LIS) was assessed as described earlier (28). Most images were assessed at magnification of over 400×. […] At the minimum twenty sections from each group of mice were evaluated and 4 investigators participated in the analysis of 50 or more fields per group. According to recommendation of “An Official American Thoracic Society Workshop Report: Features and Measurements of Experimental Acute Lung Injury in Animals” (Am J Respir Cell Mol Biol 44 725-738, 2011) more than 20 high power fields were independently scored (as described above) and at least 50% of each field was occupied by lung alveoli. […]"}, "thrombomodulin (TM)": {"tested_on": "thrombomodulin (TM)", "experiment": "Thrombomodulin in BAL fluid by Western blot, flu induced ALI", "format": "in vivo, mice", "details": "FIG. 13"}}, "data": [{"substance": "Cont siRNA: control siRNA #8 (SEQ ID NO:26/27) conjugated to F(ab′)2 fragments of Ly6G1A8 (chain 1 UUCCUCUCCACGCGCAGUACAUUUA; chain 2 AAGGAGAGGUGCGCGUCAUGUAAAU; conjugated to antibody F(ab')2 fragment, attachment not given here; one strand is listed 3' to 5')", "values": [{"measurement": "Btk in lung neutrophils", "setting": "Btk", "result": "normal levels"}, {"measurement": "uptake (phagocytosis) of apoptotic alveolar neutrophils by macrophages", "setting": "alveolar neutrophils", "result": "no effect"}, {"measurement": "Lung Injury Score: Edema fluid", "setting": "[1]", "result": "1.337 ± 0.170"}, {"measurement": "Lung Injury Score: Inflammatory infiltration", "setting": "[1]", "result": "1.824 ± 0.141"}, {"measurement": "Lung Injury Score: Thickening of alveolar septa", "setting": "[1]", "result": "1.607 ± 0.276"}, {"measurement": "levels of TM in BAL fluid", "setting": "thrombomodulin (TM)", "result": "significantly increased levels"}]}]}
